Starred links: 1 amine or outer side, 2 acyl side, 3 side chain; linkers in the order of their positions; H or OH if unused. Non-standard residues stand in square brackets, D forms with d. Residues, ends and D or L forms follow the SMILES beside them. Groups on a side chain read outwards from the residue. *: point of attachment. C18 diacid = O=C(O)CCCCCCCCCCCCCCCCC(=O)*; γGlu = O=C(O)[C@H](CCC(=O)[*:2])N[*:1]; AEEA = NCCOCCOCC(=O)O; Aib = CC(C)(N)C(=O)O

The nature of the data set: physchem. The method in brief:
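Solubility at pH 7.4 determined by stepwise addition of 200 mM phosphate buffer in 100 μL increments to 3 mg peptide, mixing briefly each time, until no insoluble material remained, then measured by liquid chromatography.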

The solubility is the dissolved amount per volume that the medium holds. On to `CC[C@H](C)[C@H](NC(=O)[C@H](Cc1ccccc1)NC(=O)[C@@H](NC(=O)CNC(=O)[C@H](CCC(=O)O)NC(=O)C(C)(C)NC(=O)[C@@H](N)Cc1ccc(O)cc1)[C@@H](C)O)C(=O)N[C@@H](CO)C(=O)N[C@@H](CC(=O)O)C(=O)N[C@@H](Cc1ccc(O)cc1)C(=O)N[C@@H](CO)C(=O)N[C@H](C(=O)NC(C)(C)C(=O)N[C@@H](CC(C)C)C(=O)N[C@@H](CC(=O)O)C(=O)N[C@@H](CCCCN)C(=O)N[C@@H](C)C(=O)N[C@@H](C)C(=O)N[C@@H](CCC(N)=O)C(=O)N[C@@H](C)C(=O)N[C@@H](CCCCNC(=O)COCCOCCNC(=O)COCCOCCNC(=O)CC[C@H](NC(=O)CC[C@H](NC(=O)CCCCCCCCCCCCCCCCC(=O)O)C(=O)O)C(=O)O)C(=O)N[C@@H](Cc1ccccc1)C(=O)N[C@H](C(=O)N[C@@H](CCC(=O)O)C(=O)N[C@@H](Cc1c[nH]c2ccccc12)C(=O)N[C@@H](CC(C)C)C(=O)N[C@@H](CC(C)C)C(=O)N[C@@H](C)C(=O)N[C@@H](CCC(N)=O)C(=O)N[C@@H](CCCNC(=N)N)C(=O)NCC(=O)O)C(C)C)[C@@H](C)CC` [Compound 168] (H-Y[Aib]EGTFISDYSI[Aib]LDKAAQAK([AEEA-AEEA-γGlu-γGlu-C18 diacid])FVEWLLAQRG-OH), for which the solubility reads like this: (pH 7.4) at least 15 mg/mL; (pH 7.4, aqueous buffer) at least 30 mg/mL.
Taken in the same sequence, the figures for `CC[C@H](C)[C@H](NC(=O)[C@H](CO)NC(=O)[C@H](Cc1ccc(O)cc1)NC(=O)[C@H](CC(=O)O)NC(=O)[C@H](CO)NC(=O)[C@@H](NC(=O)[C@H](Cc1ccccc1)NC(=O)[C@@H](NC(=O)CNC(=O)[C@H](CCC(=O)O)NC(=O)C(C)(C)NC(=O)[C@@H](N)Cc1ccc(O)cc1)[C@@H](C)O)[C@@H](C)CC)C(=O)N[C@@H](C)C(=O)NC(C)(C)C(=O)N[C@@H](CC(=O)O)C(=O)N[C@@H](CCCCN)C(=O)N[C@@H](C)C(=O)N[C@@H](CCCCNC(=O)COCCOCCNC(=O)COCCOCCNC(=O)CC[C@H](NC(=O)CCCCCCCCCCCCCCCCC(=O)O)C(=O)O)C(=O)N[C@@H](CCC(N)=O)C(=O)N[C@@H](C)C(=O)N[C@@H](CC(=O)O)C(=O)N[C@@H](Cc1ccccc1)C(=O)N[C@H](C(=O)N[C@@H](CCC(=O)O)C(=O)N[C@@H](Cc1c[nH]c2ccccc12)C(=O)N[C@@H](CC(C)C)C(=O)N[C@@H](CC(C)C)C(=O)N[C@@H](C)C(=O)N[C@@H](CCC(N)=O)C(=O)N[C@@H](CCCNC(=N)N)C(=O)NCC(=O)O)C(C)C` [Compound 165] (H-Y[Aib]EGTFISDYSIA[Aib]DKAK([AEEA-AEEA-γGlu-C18 diacid])QADFVEWLLAQRG-OH) were at least 15 mg/mL and at least 30 mg/mL.
The like results for `CC[C@H](C)[C@H](NC(=O)[C@H](Cc1ccccc1)NC(=O)[C@@H](NC(=O)CNC(=O)[C@H](CCC(=O)O)NC(=O)C(C)(C)NC(=O)[C@@H](N)Cc1ccc(O)cc1)[C@@H](C)O)C(=O)N[C@@H](CO)C(=O)N[C@@H](CC(=O)O)C(=O)N[C@@H](Cc1ccc(O)cc1)C(=O)N[C@@H](CO)C(=O)N[C@H](C(=O)NC(C)(C)C(=O)N[C@@H](CC(C)C)C(=O)N[C@@H](CC(=O)O)C(=O)N[C@@H](CCCCN)C(=O)N[C@@H](C)C(=O)N[C@@H](CCCCNC(=O)COCCOCCNC(=O)COCCOCCNC(=O)CC[C@H](NC(=O)CCCCCCCCCCCCCCCCC(=O)O)C(=O)O)C(=O)N[C@@H](CCC(N)=O)C(=O)N[C@@H](C)C(=O)N[C@@H](CC(=O)O)C(=O)N[C@@H](Cc1ccccc1)C(=O)N[C@H](C(=O)N[C@@H](CC(N)=O)C(=O)N[C@@H](Cc1c[nH]c2ccccc12)C(=O)N[C@@H](CC(C)C)C(=O)N[C@@H](CC(C)C)C(=O)N[C@@H](C)C(=O)N[C@@H](CCC(N)=O)C(=O)N[C@@H](CCCNC(=N)N)C(=O)NCC(=O)O)C(C)C)[C@@H](C)CC` [Compound 171] (H-Y[Aib]EGTFISDYSI[Aib]LDKAK([AEEA-AEEA-γGlu-C18 diacid])QADFVNWLLAQRG-OH) were, in that order, at least 15 mg/mL and at least 30 mg/mL.

The record behind these values is patent US20230143604A1, “QW DOSING OF GIP RECEPTOR AGONIST PEPTIDE COMPOUNDS AND USES THEREOF” (TAKEDA PHARMACEUTICAL COMPANY LIMITED, priority 2020, published 2023).
